From patent publication US20250034202A1 (The General Hospital Corporation, priority 2021, published 2025)
Where “and” joins values, the source holds several entries; their conditions need not be identical. Equal values may be shown once. Read-outs that look alike come from different tables or passages of the source.

Legend:
BRD4 [1] = target: T1, BRD4 (Homo sapiens, UniProt O60885); experiment: Rescue of CS-JQ1-induced BRD4 degradation by co-treatment; type: cell-based; settings: CS-JQ1 250 nM; BTZ, MLN7243, MLN4924 1 μM, JQ1 10 μM; MCF7 and MDA-MB-231 cells
MES83 [2] = experiment: Cell viability, adult glioma MES83; type: cell-based
GBM8 = experiment: Cell viability, adult glioma GBM8; type: cell-based
MCF-7 = experiment: Cell viability, breast cancer cells MCF-7; type: cell-based
CT2A (mice) = experiment: Cell viability, adult glioma CT2A (mice); type: cell-based
U87 = experiment: Cell viability, adult glioma U87; type: cell-based
MDA-BR = experiment: Cell viability, breast cancer cells MDA-BR; type: cell-based
DIPG IV = experiment: Cell viability, pediatric glioma DIPG IV; type: cell-based
PN84 = experiment: Cell viability, adult glioma PN84; type: cell-based
MGG29 = experiment: Cell viability, adult glioma MGG29; type: cell-based
DIPG VI = experiment: Cell viability, pediatric glioma DIPG VI; type: cell-based
DIPG XIII [3] = experiment: Cell viability, pediatric glioma DIPG XIII; type: cell-based
MDA = experiment: Cell viability, breast cancer cells MDA; type: cell-based
MGG23 = experiment: Cell viability, adult glioma MGG23; type: cell-based
MGG6 = experiment: Cell viability, adult glioma MGG6; type: cell-based
MES236 = experiment: Cell viability, adult glioma MES236; type: cell-based
SJGBM2 = experiment: Cell viability, pediatric glioma SJGBM2; type: cell-based
BT474 = experiment: Cell viability, breast cancer cells BT474; type: cell-based
BRD4 [4] = experiment: CDDO blockade of CS-JQ1-induced BRD4 degradation; type: cell-based; settings: MDA and MES83 cells; CDDO 100 nM or 5 μm, celastrol-JQ1 100 nM; CHX 3 μg/ml 1 h, 8 hour treatment
XFM (mice) = experiment: Cell viability, pediatric glioma XFM (mice); type: cell-based; settings: Mus musculus
Keap1 Kelch domain = Keap1 Kelch domain (Homo sapiens, UniProt Q14145); experiment: TR-FRET assay with full-length Keap1, Kelch domain; type: binding
Sequence of Keap1 Kelch domain (Q14145 whole entry, the tested form may be a part): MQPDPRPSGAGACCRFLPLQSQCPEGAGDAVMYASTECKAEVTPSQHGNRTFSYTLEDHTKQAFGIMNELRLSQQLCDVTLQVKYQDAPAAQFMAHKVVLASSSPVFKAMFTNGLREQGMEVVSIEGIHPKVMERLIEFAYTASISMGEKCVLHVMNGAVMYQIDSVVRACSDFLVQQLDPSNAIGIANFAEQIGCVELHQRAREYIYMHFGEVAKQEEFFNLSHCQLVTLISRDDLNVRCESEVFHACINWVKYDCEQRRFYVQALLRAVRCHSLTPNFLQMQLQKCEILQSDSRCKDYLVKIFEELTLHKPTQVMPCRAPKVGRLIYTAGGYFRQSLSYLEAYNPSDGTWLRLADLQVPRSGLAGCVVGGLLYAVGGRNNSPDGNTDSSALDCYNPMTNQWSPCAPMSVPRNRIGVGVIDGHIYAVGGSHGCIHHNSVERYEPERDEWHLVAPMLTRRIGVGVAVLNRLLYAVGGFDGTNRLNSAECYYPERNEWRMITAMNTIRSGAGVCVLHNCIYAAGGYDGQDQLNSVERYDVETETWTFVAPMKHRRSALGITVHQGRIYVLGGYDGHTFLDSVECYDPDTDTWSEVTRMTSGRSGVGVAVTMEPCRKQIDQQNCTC
Experimental: (§1) FIG. 5 contains a table showing apparent equilibrium dissociation constants for CS and CS-JQ1 toward Keap1-Kelch and Keap1-BTB domains.
(§2) Chemical synthesis: FITC-Ahx-[…]-CONH2 (FITC-KL9) peptide tracer was custom synthesized by Genscript (Piscataway, New Jersey). CDDO-FITC fluorescent tracer was prepared as previously described. Column purifications were performed on a Biotage Isolera 4 Purification System equipped with a 200-400 nm diode array detector. For normal phase flash purifications, Sorbtech Purity Flash Cartridges were used (CFC-52300-012-18 and CFC-52500-025-12). For reverse phase flash purifications, Biotage Sfar Bio C18 Duo 300 A, 20 μm cartridges were used (FSBD-0411-001). […] LC/MS data analysis was performed using Waters Masslynx V4.1 SCN 846 software. Proton and carbon nuclear magnetic resonance (1H and 13C NMR spectra) were recorded on a Bruker Avance III 400 spectrometer using Topspin 3.2 software and data were analyzed using MestreNova (version 12.0.1-20560, Mestrelab Research). Chemical shifts for protons are reported in parts per million (ppm) and are referenced to residual solvent peaks. Data is reported as follows: chemical shift, multiplicity (s=singlet, br s, =broad singlet, d=doublet, t=triplet, q=quartet, p=pentet, m=multiplet), proton coupling constants (J, Hz), and integration. […]

BRD4 [5] = target: T1, BRD4; experiment: TR-FRET quantification of BRD4 levels after 5 h treatment, MCF7 cells; type: cell-based; settings: BRD4 degradation
Experimental: (§3) Mammalian cell culture: MCF7 cells (ATCC) were propagated in RPMI-1640 medium supplemented with 10% FBS, 1% pen-strep, and 1% L-glutamine at 37° C. and 5% CO2. MDA-MB-231 cells (ATCC) were propagated in DMEM medium supplemented with 10% FBS, and 1% pen-strep at 37° C. and 5% CO2.
(§4) TR-FRET measurements: unless otherwise noted, experiments were performed in white, 384-well microtiter plates (Corning 3572) in 30 μL assay volume. […] The 490/10 and 520/10 emission channels were acquired with a 50% mirror and a dichroic 510 mirror, respectively, using independently optimized detector gain settings unless specified otherwise. The TR-FRET ratio was taken as the 520/490 nm intensity ratio on a per-well basis.
(§5) Next, MCF7 and MDA-MB-231 cells were treated for 5 h with varying concentrations of CS-JQ1, followed by BRD4 quantification. […] Western blot analysis on the same samples yielded results that were again in excellent agreement (FIG. 1F-G).

PHC (mice) = experiment: Cell viability, pediatric glioma PHC (mice); type: cell-based; settings: Mus musculus
PKC (mice) = experiment: Cell viability, pediatric glioma PKC (mice); type: cell-based; settings: Mus musculus
DIPG 50 = experiment: Cell viability, pediatric glioma DIPG 50; type: cell-based
M005 (mice) = experiment: Cell viability, adult glioma M005 (mice); type: cell-based; settings: Mus musculus
BRD4 [6] = target: T1, BRD4; experiment: TR-FRET quantification of BRD4 levels after 5 h treatment, MDA-MB-231 cells; type: cell-based; settings: BRD4 degradation
Experimental: as §3, §4, §5

Keap1 BTB domain = Keap1 BTB domain (Homo sapiens, UniProt Q14145); experiment: TR-FRET ligand displacement assay with full-length Keap1, BTB domain (CDDO-based tracer); type: binding
Sequence of Keap1 BTB domain (Q14145 whole entry, the tested form may be a part): as above
Experimental: as §1
as §2, with “Research).” for “Research). Chemical shifts for protons are reported in parts per million (ppm) and are referenced to residual solvent peaks. Data is reported as follows: chemical shift, multiplicity (s=singlet, br s, =broad singlet, d=doublet, t=triplet, q=quartet, p=pentet, m=multiplet), proton coupling constants (J, Hz), and integration.”
CS was discovered and validated as a promising new ligand for the redirection of E3 ligase activity. […] Since the binding affinity of CS and CS-JQ1 for BTB was determined in a ligand displacement assay using a CDDO-based tracer, it was reasonable to assume that CDDO-Me would efficiently displace CS-JQ1. […]

BRD4 [7] = experiment: TR-FRET ligand displacement, target engagement with BRD4; type: binding; settings: recombinant BRD4(BD1), BRD4(BD2), endogenous BRD4 in MCF7 cell extracts
[8] = system: full-length Keap1 and BRD4(BD1) and BRD4(BD2); experiment: CS-JQ1-induced ternary complex formation; type: binding; settings: wildtype full-length Keap1, isolated BRD4 (BD1) and BRD4 (BD2)
[9] = cited from earlier work
DIPG XIII [10] = experiment: Cell viability, CS and JQ1 combination, DIPG XIII; type: cell-based
MES83 [11] = experiment: Cell viability, CS and JQ1 combination, MES83; type: cell-based

Compound	Rescue of CS-JQ1-mediated BRD4 degradation by co-treatment (BRD4 [1])	IC50 (MES83 [2]) [nM]	IC50 (GBM8) [nM]	IC50 (MDA-BR) [nM]	IC50 (DIPG IV) [nM]	IC50 (PN84) [nM]	IC50 (MGG29) [nM]	IC50 (DIPG VI) [nM]	IC50 (DIPG XIII [3])	IC50 (MDA) [nM]	IC50 (MGG23) [nM]	IC50 (MGG6) [nM]	IC50 (MES236) [nM]	IC50 (SJGBM2) [nM]	IC50 (U87; Homo sapiens, U-87 MG) [nM]	IC50 (XFM (mice)) [nM]	IC50 (PHC (mice)) [nM]	IC50 (PKC (mice)) [nM]	IC50 (DIPG 50) [nM]	IC50 (M005 (mice)) [nM]	also measured
CC(C)C[C@H](NC(=O)[C@H](Cc1ccccc1)NC(=O)c1cnccn1)B(O)O [BTZ]	substantially rescued	–	–	–	–	–	–	–	–	–	–	–	–	–	–	–	–	–	–	–	–
Cc1sc2c(c1C)C(c1ccc(Cl)cc1)=NC(CC(=O)NCCCOCCOCCOCCCNC(=O)[C@]13CCC(C)(C)C[C@H]1[C@H]1C(=O)C=C4[C@@]5(C)C=C(C#N)C(=O)C(C)(C)[C@@H]5CC[C@@]4(C)[C@]1(C)CC3)c1nnc(C)n1-2 (stereo partly shown) [CDDO-JQ1]	–	1000	124	> 10000	894	139	360	277	694 nM	748	1850	357	404	635	–	–	–	–	–	–	IC50 (MCF-7): 6600 nM; IC50 (CT2A (mice)): 747 nM; IC50 (U87): 746 nM; IC50 (BT474): 1680 nM
CC1(C)CC[C@]2(C(=O)O)CC[C@]3(C)[C@H](C(=O)C=C4[C@@]5(C)C=C(C#N)C(=O)C(C)(C)[C@@H]5CC[C@]43C)[C@@H]2C1 [CDDO]	–	1350	578	> 10000	1360	278	828	1330	1410 nM	1220	2570	964	1280	2370	–	–	–	–	–	–	Blockade of CS-JQ1-induced BRD4 degradation by CDDO pre-treatment (BRD4 [4]): blocks partially; IC50 (MCF-7): > 10000 nM; IC50 (CT2A (mice)): 2120 nM; IC50 (U87): 3700 nM; IC50 (BT474): 4840 nM
CC1=C(O)C(=O)C=C2C1=CC=C1[C@@]2(C)CC[C@@]2(C)[C@@H]3C[C@](C)(C(=O)NCCCOCCOCCOCCCNC(=O)CC4N=C(c5ccc(Cl)cc5)c5c(sc(C)c5C)-n5c(C)nnc54)CC[C@]3(C)CC[C@]12C (stereo partly drawn) [CS-JQ1, (2R,4aS,6aS,12bR,14aS,14bR)—N-(1-(4-(4-chlorophenyl)-2,3,9-trimethyl-6H-thieno[3,2-f][1,2,4]triazolo[4,3-a][1,4]diazepin-6-yl)-2-oxo-7,10,13-trioxa-3-azahexadecan-16-yl)-10-hydroxy-2,4a,6a,9,12b,14a-hexamethyl-11-oxo-1,2,3,4,4a,5,6,6a,11,12b,13,14,14a,14b-tetradecahydropicene-2-carboxamide]	–	328	63.1	213	819	79.7	90.4	83.1	39 nM	119	447	99.3	190	263	266	38.2	8.48	103	298	23.6	IC50 (MCF-7; Homo sapiens, MCF7): 409 nM; IC50 (CT2A (mice); Mus musculus): 142 nM; Binding to Keap1 Kelch domain (Keap1 Kelch domain): lost the ability to bind the Keap1 Kelch domain; Emax (BRD4 [5]): 21%; Emax,5h,MCF7 (BRD4 [5]): 21%; DC50 (BRD4 [5]; n=2): 29 ± 14 nM; IC50 (PN84; listed as Celastrol-JQ1): 125 nM; IC50 (DIPG XIII [3]; listed as Celastrol-JQ1): 46.5 nM; Emax (BRD4 [6]): 12%; Emax,5h,MDA-MB-231 (BRD4 [6]): 12%; DC50 (BRD4 [6]; n=2): 16 ± 2 nM; Affinity for Keap1 BTB domain (Keap1 BTB domain): slightly improved affinity for the BTB domain; Binding to BRD4 (BRD4 [7]): did not impair binding to BRD4; IC50 (BT474; Homo sapiens, BT-474): 60.9 nM; Ternary complex formation between Keap1 and BRD4 domains [8]: able to induce ternary complex formation
CC1=C(O)C(=O)C=C2C1=CC=C1[C@@]2(C)CC[C@@]2(C)[C@@H]3C[C@](C)(C(=O)O)CC[C@]3(C)CC[C@]12C [Celastrol, (9β,13α,14β,20α)-3-hydroxy-9,13-dimethyl-2-oxo-24,25,26-Trinoroleana-1(10),3,5,7-tetraen-29-oic acid]	–	1160	715	1710	2960	381	1100	1360	1910 nM and 1800 nM	1200	1810	1230	1270	1190	913	276	310	170	1600	874	IC50 (MCF-7; Homo sapiens, MCF7): 3320 nM; IC50 (CT2A (mice); Mus musculus): 605 nM; Binding to Keap1 Kelch domain (Keap1 Kelch domain): low micromolar affinity; pKa [9]: about 4.8; Affinity for Keap1 BTB domain (Keap1 BTB domain): low micromolar affinity; IC50 (BT474; Homo sapiens, BT-474): 511 nM
Cc1sc2c(c1C)C(c1ccc(Cl)cc1)=NC(CC(=O)OC(C)(C)C)c1nnc(C)n1-2 (stereo not shown) [JQ-1]	reduced CS-JQ1 degradation efficiency	8120	–	> 10000	1520	604	> 10000	> 10000	> 10000 nM	6490	> 10000	–	3680	1580	6950	> 10000	900	786	> 10000	751	IC50 (DIPG XIII [10]): > 10000 nM; IC50 (MES83 [11]): 6380 nM; IC50 (BT474; Homo sapiens, BT-474): > 10000 nM
NS(=O)(=O)OC[C@@H]1C[C@@H](n2ccc3c(N[C@H]4CCc5ccccc54)ncnc32)C[C@@H]1O [MLN4924]	substantially rescued	–	–	–	–	–	–	–	–	–	–	–	–	–	–	–	–	–	–	–	–
NS(=O)(=O)OC[C@H]1C[C@@H](Nc2ccnc3cc(-c4cccc(SC(F)(F)F)c4)nn23)[C@H](O)[C@@H]1O [MLN7243]	substantially rescued	–	–	–	–	–	–	–	–	–	–	–	–	–	–	–	–	–	–	–	–
